Source: patent US20230271954A1 (Gossamer Bio Services, Inc., priority 2020, published 2023)

Assays:
DGKα = DGKα (Homo sapiens, UniProt P23743); assay: DGKα biochemical assay (ADP-Glo); details: read-out: DGK α IC50
In short: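 ADP-Glo kinase assay using OAG/PS (1:2) lipid substrate, sonicated, in HEPES pH 7.0 buffer with MgCl2, CaCl2, DTT, BSA, Triton X-100. Enzyme preincubated with compound 30 min at RT; substrate with ATP (DGKα: 400 μM) added, 45 min RT. Luminescence read; % inhibition vs DMSO and no-enzyme controls.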

DGKζ = molecular target: T1, DGKζ (Homo sapiens, UniProt Q13574); assay: DGKζ biochemical assay (ADP-Glo); details: read-out: DGK ζ IC50
T1 construct: purchased Carna 12-110
T1 sequence (Q13574 1-929 isoform Q13574-4): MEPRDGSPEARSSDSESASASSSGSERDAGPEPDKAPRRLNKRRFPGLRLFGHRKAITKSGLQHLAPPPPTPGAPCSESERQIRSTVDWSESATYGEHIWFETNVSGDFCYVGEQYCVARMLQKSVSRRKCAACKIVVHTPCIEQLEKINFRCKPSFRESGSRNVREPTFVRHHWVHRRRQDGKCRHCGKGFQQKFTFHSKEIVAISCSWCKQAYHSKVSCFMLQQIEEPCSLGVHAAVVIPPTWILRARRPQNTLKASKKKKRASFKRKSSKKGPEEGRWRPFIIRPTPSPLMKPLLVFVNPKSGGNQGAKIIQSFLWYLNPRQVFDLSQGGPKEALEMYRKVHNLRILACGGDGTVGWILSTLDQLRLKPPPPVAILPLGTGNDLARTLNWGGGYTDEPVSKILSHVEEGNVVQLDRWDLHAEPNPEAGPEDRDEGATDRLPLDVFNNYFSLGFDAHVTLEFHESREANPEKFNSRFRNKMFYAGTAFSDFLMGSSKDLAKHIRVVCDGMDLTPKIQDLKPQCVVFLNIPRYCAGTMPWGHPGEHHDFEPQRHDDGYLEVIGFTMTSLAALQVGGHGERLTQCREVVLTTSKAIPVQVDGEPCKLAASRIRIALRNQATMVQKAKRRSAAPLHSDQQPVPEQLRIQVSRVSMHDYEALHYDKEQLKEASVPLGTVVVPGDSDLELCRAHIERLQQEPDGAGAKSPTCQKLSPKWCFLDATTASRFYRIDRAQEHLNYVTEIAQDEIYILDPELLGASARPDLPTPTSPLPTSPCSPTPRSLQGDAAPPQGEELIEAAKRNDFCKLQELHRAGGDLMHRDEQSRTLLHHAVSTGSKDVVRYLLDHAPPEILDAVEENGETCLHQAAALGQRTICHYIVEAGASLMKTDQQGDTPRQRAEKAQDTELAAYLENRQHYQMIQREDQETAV

Chain of DGKα (P23743 whole entry): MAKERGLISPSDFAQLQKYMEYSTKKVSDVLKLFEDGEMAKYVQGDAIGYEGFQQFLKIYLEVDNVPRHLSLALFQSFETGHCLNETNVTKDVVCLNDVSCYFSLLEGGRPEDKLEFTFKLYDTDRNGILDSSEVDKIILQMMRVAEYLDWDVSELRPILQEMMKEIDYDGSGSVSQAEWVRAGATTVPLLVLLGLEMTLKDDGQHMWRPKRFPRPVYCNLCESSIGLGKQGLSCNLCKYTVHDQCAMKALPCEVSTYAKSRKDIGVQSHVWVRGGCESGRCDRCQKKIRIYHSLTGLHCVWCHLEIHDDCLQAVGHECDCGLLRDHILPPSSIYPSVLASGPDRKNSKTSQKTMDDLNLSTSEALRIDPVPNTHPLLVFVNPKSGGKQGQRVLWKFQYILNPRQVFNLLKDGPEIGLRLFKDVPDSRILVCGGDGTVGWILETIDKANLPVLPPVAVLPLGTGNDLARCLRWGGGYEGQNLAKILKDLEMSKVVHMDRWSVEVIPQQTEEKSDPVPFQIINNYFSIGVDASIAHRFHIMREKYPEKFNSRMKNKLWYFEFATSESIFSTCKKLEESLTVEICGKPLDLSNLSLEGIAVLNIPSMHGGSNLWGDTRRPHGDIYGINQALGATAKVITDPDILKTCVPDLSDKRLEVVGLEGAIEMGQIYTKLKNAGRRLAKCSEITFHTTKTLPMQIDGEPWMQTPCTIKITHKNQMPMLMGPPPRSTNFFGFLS

Compound | IC50 (DGKα) [nM] | IC50 (DGKζ) [nM]
CC(C)CN(c1ccc(F)cc1)[C@H]1CC[C@H](N(C)c2cc(=O)n(C)c3ccc(C#N)nc23)CC1 [Example 41, trans-8-((-4-((4-fluorophenyl)(isobutyl)amino)cyclohexyl)(methyl)amino)-5-methyl-6-oxo-5,6-dihydro-1,5-naphthyridine-2-carbonitrile] | ≥ 1000 | ≥ 1000
Cn1c(=O)cc(N(C)[C@H]2CC[C@@H](N(CC3CCC3)c3ccc(F)cc3)CC2)c2nc(C#N)ccc21 [Example 43, cis-8-((-4-((cyclobutylmethyl)(4-fluorophenyl)amino)cyclohexyl)(methyl)amino)-5-methyl-6-oxo-5,6-dihydro-1,5-naphthyridine-2-carbonitrile] | < 10 | 100 to 1000
Cn1c(=O)cc(N(C)[C@H]2CC[C@H](N(CC3CCC3)c3ccc(F)cc3)CC2)c2nc(C#N)ccc21 [Example 44, trans-8-((-4-((cyclobutylmethyl)(4-fluorophenyl)amino)cyclohexyl)(methyl)amino)-5-methyl-6-oxo-5,6-dihydro-1,5-naphthyridine-2-carbonitrile] | 100 to 1000 | ≥ 1000
COc1cc(F)ccc1N(C)[C@H]1CC[C@H](N(C)c2c(C#N)c(=O)n(C)c3ccc(C#N)nc23)CC1 [Example 46, trans-8-((4-((4-fluoro-2-methoxyphenyl)(methyl)amino)cyclohexyl)(methyl)amino)-5-methyl-6-oxo-5,6-dihydro-1,5-naphthyridine-2,7-dicarbonitrile] | 100 to 1000 | 10 to 100
CC(C)CN(c1ccc(F)cc1)[C@H]1CC[C@@H](N(C)c2cc(=O)n(C)c3ccc(C#N)nc23)CC1 [Example 47, cis-8-((-4-((4-fluorophenyl)(isobutyl)amino)cyclohexyl)(methyl)amino)-5-methyl-6-oxo-5,6-dihydro-1,5-naphthyridine-2-carbonitrile] | 10 to 100 | ≥ 1000
Cn1c(=O)cc(N(C)[C@H]2CC[C@@H](N(c3ccc(F)cc3)C3CC3)CC2)c2nc(C#N)ccc21 [Example 49, cis-8-((4-(cyclopropyl(4-fluorophenyl)amino)cyclohexyl)(methyl)amino)-5-methyl-6-oxo-5,6-dihydro-1,5-naphthyridine-2-carbonitrile] | < 10 | 100 to 1000
Cn1c(=O)c(C#N)c(N(C)[C@H]2CC[C@@H](N(c3ccc(F)cc3)C3CC3)CC2)c2nc(C#N)ccc21 [Example 50, cis-8-((4-(cyclopropyl(4-fluorophenyl)amino)cyclohexyl)(methyl)amino)-5-methyl-6-oxo-5,6-dihydro-1,5-naphthyridine-2,7-dicarbonitrile] | < 10 | 100 to 1000
CC(C)CN(c1ccc(F)cc1)[C@H]1CC[C@@H](N(C)c2c(C#N)c(=O)n(C)c3ccc(C#N)nc23)CC1 [Example 52, cis-8-((-4-((4-fluorophenyl)(isobutyl)amino)cyclohexyl)(methyl)amino)-5-methyl-6-oxo-5,6-dihydro-1,5-naphthyridine-2,7-dicarbonitrile] | < 10 | 10 to 100
Cn1c(=O)c(C#N)c(N(C)[C@H]2CC[C@@H](N(CC3CCOCC3)c3ccc(F)cc3)CC2)c2nc(C#N)ccc21 [Example 53, cis-8-((-4-((4-fluorophenyl)((tetrahydro-2H-pyran-4-yl)methyl)amino)cyclohexyl)(methyl)amino)-5-methyl-6-oxo-5,6-dihydro-1,5-naphthyridine-2,7-dicarbonitrile] | 10 to 100 | 100 to 1000
Cn1c(=O)c(C#N)c(N(C)[C@H]2CC[C@H](N(CC3CCOCC3)c3ccc(F)cc3)CC2)c2nc(C#N)ccc21 [Example 59, trans-8-((-4-((4-fluorophenyl)((tetrahydro-2H-pyran-4-yl)methyl)amino)cyclohexyl)(methyl)amino)-5-methyl-6-oxo-5,6-dihydro-1,5-naphthyridine-2,7-dicarbonitrile] | 100 to 1000 | 100 to 1000
COc1cc(F)ccc1N(C)[C@H]1CC[C@@H](N(C)c2c(C#N)c(=O)n(C)c3ccc(C#N)nc23)CC1 [Example 64] | 10 to 100 | 10 to 100
Cn1c(=O)c(C#N)c(N(C)[C@H]2CC[C@@H](N(C[C@H]3CCOC3)c3ccc(F)cc3)CC2)c2nc(C#N)ccc21 [Example 66] | 10 to 100 | 100 to 1000
Cn1c(=O)c(C#N)c(N(C)[C@H]2CC[C@@H](N(C[C@@H]3CCOC3)c3ccc(F)cc3)CC2)c2nc(C#N)ccc21 [Example 67] | 10 to 100 | 100 to 1000
Cn1c(=O)c(C#N)c(N(C)[C@H]2CC[C@@H](N(C[C@H]3CCCOC3)c3ccc(F)cc3)CC2)c2nc(C#N)ccc21 [Example 68] | < 10 | 10 to 100
Cn1c(=O)c(C#N)c(N(C)[C@H]2CC[C@@H](N(C[C@@H]3CCCOC3)c3ccc(F)cc3)CC2)c2nc(C#N)ccc21 [Example 69] | 10 to 100 | 10 to 100
Cc1ccccc1N(CC1CC1)[C@H]1CC[C@H](N(C)c2cc(=O)n(C)c3ccc(C#N)nc23)CC1 [Example 70, trans-8-((4-((cyclopropylmethyl)(o-tolyl)amino)cyclohexyl)(methyl)amino)-5-methyl-6-oxo-5,6-dihydro-1,5-naphthyridine-2-carbonitrile] | ≥ 1000 | 100 to 1000

Continued, values first:

IC50 (DGKα) [nM] | IC50 (DGKζ) [nM] | Compound
100 to 1000 | 100 to 1000 | COc1cc(N(CC2CC2)[C@H]2CC[C@@H](N(C)c3cc(=O)n(C)c4ccc(C#N)nc34)CC2)ccc1F [Example 38, cis-8-((4-((cyclopropylmethyl)(4-fluoro-3-methoxyphenyl)amino)cyclohexyl)(methyl)amino)-5-methyl-6-oxo-5,6-dihydro-1,5-naphthyridine-2-carbonitrile]
10 to 100 | 100 to 1000 | COc1cc(N(CC2CC2)[C@H]2CC[C@H](N(C)c3c(C#N)c(=O)n(C)c4ccc(Cl)nc34)CC2)ccc1F [Example 39, trans-6-chloro-4-((4-((cyclopropylmethyl)(4-fluoro-3-methoxyphenyl)amino)cyclohexyl)(methyl)amino)-1-methyl-2-oxo-1,2-dihydro-1,5-naphthyridine-3-carbonitrile]
10 to 100 | ≥ 1000 | COc1cc(F)ccc1N(C)[C@H]1CC[C@H](N(C)c2c(C#N)c(=O)n(C)c3ccc(Cl)nc23)CC1 [Example 40, trans-6-chloro-4-((4-((4-fluoro-2-methoxyphenyl) (methyl)amino)cyclohexyl)(methyl)amino)-1-methyl-2-oxo-1,2-dihydro-1,5-naphthyridine-3-carbonitrile]
< 10 | 100 to 1000 | Cn1c(=O)c(C#N)c(N(C)[C@H]2CC[C@@H](N(CC3CCC3)c3ccc(F)cc3)CC2)c2nc(C#N)ccc21 [Example 42, cis-8-((-4-((cyclobutylmethyl)(4-fluorophenyl)amino)cyclohexyl)(methyl)amino)-5-methyl-6-oxo-5,6-dihydro-1,5-naphthyridine-2,7-dicarbonitrile]
10 to 100 | 100 to 1000 | COc1cc(F)ccc1N(C)[C@H]1CC[C@@H](N(C)c2c(C#N)c(=O)n(C)c3ccc(Cl)nc23)CC1 [Example 45, cis-6-chloro-4-((4-((4-fluoro-2-methoxyphenyl) (methyl)amino)cyclohexyl)(methyl)amino)-1-methyl-2-oxo-1,2-dihydro-1,5-naphthyridine-3-carbonitrile]
100 to 1000 | ≥ 1000 | CC(C)CN(c1ccc(F)cc1)[C@H]1CC[C@@H](N(C)c2c(C#N)c(=O)n(C)c3ccc(Cl)nc23)CC1 [Example 48, cis-6-chloro-4-((-4-((4-fluorophenyl)(isobutyl)amino)cyclohexyl)(methyl)amino)-1-methyl-2-oxo-1,2-dihydro-1,5-naphthyridine-3-carbonitrile]
< 10 | 100 to 1000 | Cn1c(=O)c(C#N)c(N(C)[C@H]2CC[C@@H](N(c3ccc(F)cc3)C3CC3)CC2)c2nc(Cl)ccc21 [Example 51, cis-6-chloro-4-((4-(cyclopropyl(4-fluorophenyl)amino)cyclohexyl)(methyl)amino)-1-methyl-2-oxo-1,2-dihydro-1,5-naphthyridine-3-carbonitrile]
100 to 1000 | 100 to 1000 | Cn1c(=O)c(C#N)c(N(C)[C@H]2CC[C@H](N(CC3CC3)c3ccc(F)cc3)CC2)c2nc(C#N)ccc21 [Example 54, trans-8-((4-((cyclopropylmethyl)(4-fluorophenyl)amino)cyclohexyl)(methyl)amino)-5-methyl-6-oxo-5,6-dihydro-1,5-naphthyridine-2,7-dicarbonitrile]
100 to 1000 | 10 to 100 | Cn1c(=O)c(C#N)c(N(C)[C@H]2CC[C@@H](N(CC3CC3)c3ccc(F)c(F)c3)CC2)c2nc(C#N)ccc21 [Example 60, cis-8-((4-((cyclopropylmethyl)(3,4-difluorophenyl)amino)cyclohexyl)(methyl)amino)-5-methyl-6-oxo-5,6-dihydro-1,5-naphthyridine-2,7-dicarbonitrile]
100 to 1000 | 10 to 100 | Cn1c(=O)c(C#N)c(N(C)[C@H]2CC[C@@H](N(CC3CC3)c3ccc4c(c3)OCO4)CC2)c2nc(C#N)ccc21 [Example 61, cis-8-((4-(benzo[d][1,3]dioxol-5-yl(cyclopropylmethyl)amino)cyclohexyl)(methyl)amino)-5-methyl-6-oxo-5,6-dihydro-1,5-naphthyridine-2,7-dicarbonitrile]
10 to 100 | 10 to 100 | COc1cc(N(C2CC2)[C@H]2CC[C@@H](N(C)c3c(C#N)c(=O)n(C)c4ccc(C#N)nc34)CC2)ccc1F [Example 65]
≥ 1000 | 10 to 100 | Cc1ccccc1N(CC1CC1)[C@H]1CC[C@H](N(C)c2c(C#N)c(=O)n(C)c3ccc(C#N)nc23)CC1 [Example 71, trans-8-((4-((cyclopropylmethyl)(o-tolyl)amino)cyclohexyl)(methyl)amino)-5-methyl-6-oxo-5,6-dihydro-1,5-naphthyridine-2,7-dicarbonitrile]
